Laboratory results as given in patent US7879817B2, “Hyaluronic acid derivative and drug containing the same” (priority 2004, dated 2011).

Assays:
[1] = Sustained release property in the rabbit knee joint (residual ratio in synovial fluid and synovium); settings: intra-articular
[2] = system: 1% silver nitrate-induced pain model; assay: 1% silver nitrate-induced pain model in rats
From the text: As General anesthesia, inhalation of isoflurane (Forane (registered trade mark), Dainippon Pharmaceutical Co., Ltd., concentration 3.0%, flow rate 2.0 liters/min) filled in a small animal anesthetizer (TK-4, manufactured by BioMachinery Co., Ltd.) was employed.
Rats (Crj:SD (SPF), male, 6-weeks-old) were fixed in the supine position under ether anesthesia, and a wide area around the knee joint of the left hind paw was shaved with an electric clipper. After disinfecting the area around the joint by spraying 70% alcohol, 1% silver nitrate solution was administered into the knee joint cavity of the left hind paw at a dose of 50 μl/joint using a 29 G needle-tipped syringe for insulin use (manufactured by Terumo Corp.).
Regarding the administration method, as in the case of algesic substances, the area around the joint was disinfected by spraying 70% alcohol under inhalation anesthesia by isoflurane, and each test substance was administered into the knee joint cavity of the left hind paw at a dose of […] using a 29 G needle-tipped syringe for insulin use (n=5).
The walking of each group was visually observed and scored by using the following pain score table which was figured walking in score under blinded conditions.
Score • 0: Normal (includes nearly normal) • 1: Mild claudication • 2: Severe claudication • 3: Walking on three legs
In addition, the weight loading on the silver nitrate-injected paw (left hind paw) was measured by using a weighting activity analgesia meter (manufactured by Tokken Inc.), and the weight loading rate was calculated by dividing the measured value by the body weight.
Test substances were orally administered by using a sonde for oral administration to rat (manufactured by Fuchigami Kikai) at a dose of 1 ml/head.
In FIG. 6, the “Diclofenac Na (p.o.) 50 mg/kg” corresponds to the above-described (i) (high dose group), and the “Diclofenac Na (p.o.) 1 mg/kg” corresponds to the above-described (ii) (low dose group).

Filter pass through test = type: physicochemical; settings: 1.0% by weight in PBS, 0.45 μm porous filter (25 mm in diameter), 24° C., 5.0 kg/cm^2
Method: PBS in which each substance to be tested was dissolved to a concentration of 1.0% by weight was prepared. At a temperature of 24° C. under pressure of 5.0 kg/cm^2, each solution of the substances to be tested prepared in the following examples was passed through a 0.45 μm porous filter (25 mm in diameter), and the passed amount (ml) per 1 minute was measured A case in which 2 ml or more was passed is shown by “A”, and a case in which less than 2 ml was passed by “B”, and a case in which none passed by “C”.

[3] = Appearance of the 1.0% by weight solution in PBS; type: physicochemical; settings: dissolved in PBS to 1.0% by weight
[4] = intra-articular injection 24 hours after 1% silver nitrate, in comparison with PBS

Compound	analgesic effect (pain score, walking) [2, 4]	filter pass through test (passed amount per 1 minute) (Filter pass through test)	other results
CC(C(=O)O)c1cccc(C(=O)c2ccccc2)c1 (centres unmarked) [KP, ketoprofen]	–	–	time until KP disappeared from the synovial fluid and synovium [1]: ≤ 6 h; time until KP disappeared from the synovium [1]: ≤ 6 h
O=C(O)Cc1ccccc1Nc1c(Cl)cccc1Cl [diclofenac sodium, reference compound]	did not show significant effect in comparison with PBS	–	adverse effects observed ([2]; oral administration, high dose 50 mg/kg): positive fecal occult blood reaction, jaundice-like symptom and body weight loss were observed from the next day; analgesic effect (pain score, walking) ([2]; oral administration, high dose 50 mg/kg (1% suspension in 10% gum arabic, 1 ml/head)): showed analgesic effect; analgesic effect (pain score, walking) ([2]; oral administration, low dose 1 mg/kg (0.02% suspension in 10% gum arabic, 1 ml/head)): the effect was not found in comparison with the PBS intra-articular injection group
Aminoethanol-diclofenac-Introduced Sodium Hyaluronate (DS 14.7%) [Example 39]	showed remarkable analgesic effect	–	–
Aminopropanol-acetylsalicylic Acid-Introduced Sodium Hyaluronate [Example 11]	–	A (2 ml or more was passed)	appearance of the solution [3]: colorless and transparent liquid
Aminopropanol-diclofenac-Introduced Sodium Hyaluronate (65 kDa) Sodium (DS 17.1%) [Example 37]	showed diminished analgesic effect in comparison with the case of the molecular weight of 800,000	–	–
Aminopropanol-diclofenac-Introduced Sodium Hyaluronate (DS 4.3%) [Example 35]	showed analgesic effect	–	–
Aminopropanol-diclofenac-Introduced Sodium Hyaluronate (DS 9.7%) [Example 36]	showed a remarkable analgesic effect in comparison with PBS	–	–
Aminopropanol-diclofenac-Introduced Sodium Hyaluronate [Example 19]	–	–	analgesic effect (pain score, walking) ([2]; intra-articular injection 24 hours after 1% silver nitrate, in comparison with PBS, listed as DS 18.2%): showed a remarkable analgesic effect in comparison with PBS; analgesic effect (pain score, walking) ([2]; intra-articular injection 24 hours after 1% silver nitrate, in comparison with PBS, listed as diclofenac-introduced hyaluronic acid derivative): showed the analgesic effect after the administration
Aminopropanol-felbinac-Introduced Hyaluronic Acid [Example 13]	–	A (2 ml or more was passed)	appearance of the solution [3]: colorless and transparent liquid
Aminopropanol-fenbufen-Introduced Hyaluronic Acid [Example 15]	–	A (2 ml or more was passed)	–
Aminopropanol-flurbiprofen-Introduced Sodium Hyaluronate [Example 9]	–	A (2 ml or more was passed)	appearance of the solution [3]: colorless and transparent liquid
Aminopropanol-ibuprofen-Introduced Sodium Hyaluronate [Example 7]	–	A (2 ml or more was passed)	–
Aminopropanol-mefenamic Acid-Introduced Hyaluronic Acid [Example 17]	–	A (2 ml or more was passed)	appearance of the solution [3]: colorless and transparent liquid
Diaminopropane-diclofenac-Introduced Sodium Hyaluronate (DS 18.1%) [Example 41]	had no effect on the test system of this example	–	–
